Biological target: BTK kinase (Homo sapiens (Human), UniProt Q06187)
Assay: BTK kinase experiment (ADP-Glo)
Format: biochemical
Details: 2 μM ATP, PolyE4Y1 substrate, 30 minutes pre-incubation
Description: BTK kinase, PolyE4Y1 substrate and Kinase assay buffer III were purchased from Signalchem; ADP-Glo Kinase Assay was purchased from Promega; Nivo multi-label analyzer (PerkinElmer).
1× buffer preparation (which was prepared and used immediately): Kinase assay buffer III was diluted with ddH2O to 1× assay buffer for later use.
The compound to be tested was diluted with 100% DMSO to 10 μM as the first concentration, and followed by a 5-fold dilution to the 8th concentration using a multi-channel pipette, i.e., it was diluted from 10 μM to 0.128 nM.
Each gradient of the compound to be tested was diluted into a working solution with 5% DMSO using 1× buffer, 1 μL/well was added to the corresponding well, and a double-replicate well experiment was set up. 2 μL of BTK enzyme (4 ng) was add to each well and incubating at 25° C. for 30 minutes. After the incubation was completed, 2 μL of a mixture of substrate and ATP (2 μM ATP, 0.2 μg/μL PolyE4Y1) was added to each well and incubating at 25° C. for 120 minutes. At this point, the final concentration gradient of the compound was diluted from 100 nM to 0.00128 nM. After the reaction was completed, 5 μL of ADP-Glo reagent was added to each well, and the reaction continued at 25° C. for 40 minutes. After the reaction was completed, 10 μL of kinase detection reagent was added to each well. After reacting at 25° C. for 30 minutes, PerkinElmer Nivo multi-label analyzer was used to read the chemiluminescence, and the integration time was 0.5 seconds.
Raw data was converted into inhibition rate using the equation: (Sample−Min)/(Max−Min)*100%. The IC50 value could then be derived by performing a curve fit using four-parameter (which was obtained using the “log(inhibitor) vs. response-Variable slope” mode in GraphPad Prism).

Sequence of BTK kinase (Q06187 whole entry): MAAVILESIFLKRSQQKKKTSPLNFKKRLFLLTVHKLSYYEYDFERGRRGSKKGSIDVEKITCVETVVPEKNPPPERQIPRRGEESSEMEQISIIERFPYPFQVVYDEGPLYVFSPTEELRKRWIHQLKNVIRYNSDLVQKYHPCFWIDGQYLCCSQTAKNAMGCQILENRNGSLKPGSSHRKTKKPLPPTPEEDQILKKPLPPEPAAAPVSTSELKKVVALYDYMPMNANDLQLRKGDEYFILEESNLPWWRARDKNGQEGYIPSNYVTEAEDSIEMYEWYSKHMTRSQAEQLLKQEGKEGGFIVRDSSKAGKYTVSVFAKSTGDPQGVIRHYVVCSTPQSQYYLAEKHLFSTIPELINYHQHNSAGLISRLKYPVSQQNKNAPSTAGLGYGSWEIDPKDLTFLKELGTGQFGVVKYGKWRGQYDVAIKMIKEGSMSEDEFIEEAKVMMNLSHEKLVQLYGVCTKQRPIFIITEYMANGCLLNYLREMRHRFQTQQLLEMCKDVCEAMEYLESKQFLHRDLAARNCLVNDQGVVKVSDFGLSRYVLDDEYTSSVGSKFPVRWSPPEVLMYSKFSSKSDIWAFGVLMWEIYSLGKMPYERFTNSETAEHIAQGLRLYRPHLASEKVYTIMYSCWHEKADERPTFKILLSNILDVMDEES

Structure (SMILES) | IC50
C=CC(=O)N1CCC[C@@H](n2c(=O)n(-c3ccc(CNC(=O)c4cc(F)ccc4OC)cc3)c3c(N)nccc32)C1 [Compound 001] | 0.71 nM
Nc1nccc2c1n(-c1ccc(Oc3ccccc3)c(F)c1)c(=O)n2[C@@H]1CCCN(C(=O)/C=C/CF)C1 [Compound 009] | 2.8 nM
Cc1cc(-n2c(=O)n([C@@H]3CCCN(C(=O)/C=C/CF)C3)c3ccnc(N)c32)ccc1Oc1ccccc1 [Compound 010] | 3.04 nM
Nc1nccc2c1n(-c1ccc(Oc3ccccc3)c(Cl)c1)c(=O)n2[C@@H]1CCCN(C(=O)/C=C/CF)C1 [Compound 011] | 1.57 nM

The next lines start with the values.

IC50 | Structure (SMILES)
2.46 nM | COc1cccc(Oc2ccc(-n3c(=O)n([C@@H]4CCCN(C(=O)/C=C/CF)C4)c4ccnc(N)c43)cc2)c1F [Compound 004]
2.85 nM | Nc1nccc2c1n(-c1ccc(Oc3c(F)cccc3F)cc1)c(=O)n2[C@@H]1CCCN(C(=O)/C=C/CF)C1 [Compound 005]
13.6 nM | Nc1nccc2c1n(-c1ccc(Oc3ccc(Br)cn3)cc1)c(=O)n2[C@@H]1CCCN(C(=O)/C=C/CF)C1 [Compound 006]
16 nM | Nc1nccc2c1n(-c1ccc(Oc3ccc(Cl)cn3)cc1)c(=O)n2[C@@H]1CCCN(C(=O)/C=C/CF)C1 [Compound 007]
36.5 nM | Nc1nccc2c1n(-c1ccc(Oc3ccc(F)cn3)cc1)c(=O)n2[C@@H]1CCCN(C(=O)/C=C/CF)C1 [Compound 008]
